Measurements: patent publication US6352959B1, “Thiochromanoylpyrazolone derivatives” (BASF Aktiengesellschaft, priority 1998, dated 2002)

Columns and labels:
Avena fatua = assay: greenhouse herbicidal test; format: in vivo; conditions: rate and mode not restated in the sentence
Source text: (§1) The seeds of the test plants were sown separately for each species. For the post-emergence treatment, the test plants were first grown to a plant height of from 3 to 15 cm, depending on the plant habit, and only then treated with the active ingredients which had been suspended or emulsified in water. For this purpose, the test plants were either sown directly and grown in the same containers, or they were first grown separately as seedlings and transplanted into the test containers a few days prior to treatment. The application rate for the post-emergence treatment was 0.25 or 0.125 kg of a.s. (active substance) per ha. Depending on the species, the plants were kept at from 10 to 25° C. or from 20 to 35° C. The test period extended over 2 to 4 weeks. During this time, the plants were tended and their response to the individual treatments was evaluated. Evaluation was carried out using a scale from 0 to 100. 100 means no emergence of the plants, or complete destruction of at least the above-ground parts, and 0 means no damage or normal course of growth. [table]

Polygonum persicaria = assay: greenhouse herbicidal test; format: in vivo; conditions: rate and mode not restated in the sentence
Source text: as §1

Setaria viridis = assay: greenhouse herbicidal test; format: in vivo; conditions: rate and mode not restated in the sentence
Source text: as §1

Sinapis alba = assay: greenhouse herbicidal test; format: in vivo; conditions: rate and mode not restated in the sentence
Source text: as §1

melting point: 84 °C
SMILES: CCCOCc1c(C(=O)c2cnn(C)c2O)ccc2c1S(=O)(=O)CCC2(C)C [Compound 2.17, 4-{[4,4-Dimethyl-8-propoxymethyl-1,1-dioxothiochroman-7-yl]-carbonyl}-5-hydroxy-1-methylpyrazole]
activity against the weed (Avena fatua): very good activity
activity against the weed (Polygonum persicaria): very good activity
activity against the weed (Setaria viridis): very good activity
activity against the weed (Sinapis alba): very good activity
